The term half-life denotes the time in which the quantity being followed falls by half.

The nature of series [1]: In vivo imaging system (IVIS) analysis of fluorescent dye-conjugated transporter peptides. The arrangement: species or system BALB/c mice. The conditions noted are these: for quantified fluorescence signal in mouse brain: after 0.5 hour of the injection; for half-life: BALB/c, mouse, brain, intravenous, read-out: half-life of the fluorescence in the mouse brains (converted). As to the method:
In this Example, the transporter peptide disclosed herein was administered to mice, and the distribution of the transporter peptide in the mice was detected with an in vivo fluorescence imaging system (IVIS).
One (1) mg of each transporter peptides PT-001 (SEQ ID NO: 2), PT-025 (SEQ ID NO: 11), PT-034 (SEQ ID NO: 19), and PT-031 (SEQ ID NO: 17) was dissolved in 1 mL of buffer containing 50 mM sodium bicarbonate/bicarbonate to a final concentration of 1 mg/mL. […] of 10 mg/mL fluorescent dye (VivoTag 680 XL, PerkinElmer, USA) was added to the 1 mL transporter peptide solution, and the mixture was incubated at room temperature in the dark for 1 hour. The dye-labeled product was filtered with a 3 KDa centrifugal filter device (Amicon Ultra-0.5 Centrifugal filter devices, Millipore, USA) and centrifuged at 14,000×g for 15 minutes. The fluorescent dye-conjugated transporter peptide was diluted with 1×PBS to a final volume of 0.2 mL.
BALB/c mice (BioLASCO Taiwan Co., Ltd, Taipei, Taiwan) at the age of 7-8 weeks were divided into a control group (n=1) and a test group (n=3). The mouse in the control group was administered 50 μL of fluorescent dye via tail vein injection. Mice in the group were administered 50 μL of the transporter peptide conjugated with fluorescent dye obtained above via tail vein injection. Mice were photographed using an optical imaging system (U-OI, MlLabs, Netherlands) at 0.5, 1, 2, 4, 6 and 24 hours after the injection for IVIS imaging analysis, with the excitation wavelength of 631 nm, the emission wavelength of 710 nm, and 10-second exposure time. Fluorescence signals of mouse brains were further quantified.

For series [2], the system named is Caco-2 cell monolayer. The conditions noted are these: PT-034 on top of monolayer, 37° C. As to the method:
In this example, the transport efficiency of the transporter peptide disclosed herein to the Caco-2 cell monolayer was tested to analyze the penetration effect of the transporter peptide on the tissue barrier, and to analyze the ability of the transporter peptide to induce transcytosis of the cell.
Caco-2 cells were plated at 2×10^4 cells/cm^2 on 24-transwell inserts (BD Falcon, 353495) in DMEM medium with 10% FBS and cultured for 21 days to form a monolayer. Monolayers were then confirmed by transepithelial electrical resistance (TEER), and the monolayers which have at least 500-600 Ω cm^2 of TEER were qualified monolayers for the following transcytosis experiment.
HPLC was conducted by using a Water ACQUITY Arc system. The chromatographic separation was performed on a C18 column (Waters XSelect HSS T3 […], 4.6 mm×250 mm). Column temperature was maintained and operated at 40° C. The mobile phase consisted of A-0.1% trifluoroacetic acid in water and B-100% methanol. Separation was performed according to the following gradient program: 0 min-10% B, 6 min-30% B, 12 min-50% B, 18 min-90% B, 23 min-10% B. The flow rate of the mobile phase was at 1 mL/min, the injection volume of the sample was 20 μL, and the total run time was within 30 mins.
The caco-2 monolayers with TEER at 680 Ω cm^2 were equilibrated in DMEM medium (serum free). […] of PT-034 (SEQ ID NO: 19) was applied to the top of Caco-2 monolayers at 37° C. Samples of both upper and lower solution were collected at 0, 0.25, 0.5, 1, 2, 6 hours. Peptides were purified from the sample solution by solid phase extraction (SPE) using C-18 tips (Cat. no. 87784, Pierce, Waltham, Massachusetts, USA). Each sample was supplemented with a final concentration of 11.43 μM PT-034 as internal control. 300 μL sample was absorbed by the C18 tip and eluted by 100 μL methanol. The sample was then subjected to HPLC analysis. The HPLC peak area was calculated at retention time of 16.9 minutes, and a standard curve was plotted for calculating the contents of the transporter peptide in the sample solutions.

The conditions of series [3]: 10 mg/kg tail vein injection.
Description: Brain tissue was collected one hour after the injection and triturated in 1.3 mL of 50 mM sodium bicarbonate/bicarbonate buffer. The brain tissue grinding fluid was centrifuged at 3000 rpm for 5 minutes, the supernatant was taken and further centrifuged at 14000 rpm for 15 minutes. Zero-point-four (0.4) mL of ice-cold methanol was added to 0.1 mL of the brain tissue grinding supernatant. The mixture was shook for 10 minutes, and then centrifuge at 14,000 rpm for 15 minutes. The brain tissue supernatant was then subjected to HPLC analysis whose method is as described in Example 2. The HPLC peak area was calculated at the retention time of 16.9 minutes, and a standard curve was plotted to calculate the content of the transporter peptide in each sample.
[4] abbreviates: 1 mg/kg dye-conjugated peptide, tail vein injection, 0.5, 1, 2, 4 and 6 hours after injection.

“And” between values parts separate entries of the source, which are not always exact repeats. Identical values can stand only once. Like-named read-outs stand apart in the source and are kept apart here. Peptide text beside a SMILES is read from it.

Take `CC[C@H](C)[C@H](NC(=O)[C@@H](N)CC(=O)O)C(=O)N[C@@H](CO)C(=O)N[C@H](C(=O)N[C@@H](CC(C)C)C(=O)N[C@@H](CCSC)C(=O)N[C@@H](CCCCN)C(=O)N[C@@H](CCC(=O)O)C(=O)N[C@@H](Cc1ccc(O)cc1)C(=O)N[C@@H](CC(=O)O)C(=O)O)C(C)C` [PT-001, DISVLMKEYD] (H-DISVLMKEYD-OH): the “distribution of fluorescent signal in mice (IVIS)” value (“distribution of fluorescent signal” for short) in series [1] (setting [4]) was “enriched in the brain and spine”. In series [1] (1 mg/kg, tail vein injection), the “quantified fluorescence signal in mouse brain” value was “high levels of fluorescent signals” and the half-life is approximately 5 h.
As for `CC[C@H](C)[C@H](NC(=O)[C@@H](N)CC(=O)O)C(=O)N[C@@H](CO)C(=O)N[C@H](C(=O)N[C@@H](CC(C)C)C(=O)N[C@@H](CCSC)C(=O)N[C@@H](CCCCN)C(=O)N[C@@H](CCC(=O)O)C(=O)N[C@@H](Cc1ccc(O)cc1)C(=O)N[C@@H](CC(N)=O)C(=O)O)C(C)C` [PT-031, DISVLMKEYN] (H-DISVLMKEYN-OH), the “distribution of fluorescent signal” value in series [1] (setting [4]) was “enriched in the brain and spine”. Also, in series [1] (1 mg/kg, tail vein injection), the “quantified fluorescence signal in mouse brain” value is on record as “high levels of fluorescent signals” and the half-life is approximately 5 h.
On to `CC[C@H](C)[C@H](NC(=O)[C@@H](N)CC(=O)O)C(=O)N[C@@H](CO)C(=O)N[C@H](C(=O)N[C@@H](CC(C)C)C(=O)N[C@@H](CC(=O)O)C(=O)N[C@@H](CCCCN)C(=O)N[C@@H](CCC(=O)O)C(=O)N[C@@H](Cc1ccc(O)cc1)C(=O)N[C@@H](CC(=O)O)C(=O)O)C(C)C` [PT-025, DISVLDKEYD] (H-DISVLDKEYD-OH; N-terminus and C-terminus assumed), for which, in series [1] (setting [4]), the “distribution of fluorescent signal” value is “enriched in the brain and spine”. In addition, in series [1] (1 mg/kg, tail vein injection), the “quantified fluorescence signal in mouse brain” value is recorded as “high levels of fluorescent signals” and the half-life is approximately 5 h.
With `CC[C@H](C)[C@H](NC(=O)[C@@H](N)CC(=O)O)C(=O)N[C@@H](CO)C(=O)N[C@H](C(=O)N[C@@H](CC(C)C)C(=O)N[C@@H](CCSC)C(=O)N[C@@H](CCCCN)C(=O)N[C@@H](CCC(=O)O)C(=O)N[C@@H](Cc1ccc(O)cc1)C(=O)N[C@@H](CCC(N)=O)C(=O)O)C(C)C` [PT-034, DISVLMKEYQ], the “distribution of fluorescent signal” value in series [1] (10 mg/kg dye-conjugated peptide, tail vein injection, 1, 2, 4 and 6 hours after injection) was “enriched in the brain and spine”. Besides, in series [1] (10 mg/kg, tail vein injection, after 1 hour of the injection), the “quantified fluorescence signal in mouse brain compared with control group (Dye)” value is given as “high level of fluorescent signal”. For the same compound, the half-life in series [1] (10 mg/kg, tail vein injection) is approximately 5 h. The “transporter peptide penetrated the Caco-2 cell monolayer” value is on record as “about 8%” in series [2] (0.25 hours), approximately 40% in series [2] (1 hour), approximately 42% in series [2] (2 hours) and approximately 56% in series [2] (6 hours). Further, the “Content of the transporter peptid in the brain tissue” value in series [3] (brain collected one hour after injection, individual mouse) was 25.9 µg and 25.5 µg. In addition, in series [3] (one hour after injection, individual mouse), the “Injection dose/brain tissue weight” value was 23.48% ID/g of brain and 22.09% ID/g of brain. In series [3] (one hour after injection, mean of 2 mice), the “average transport efficiency to the brain” value is given as 22.79 % ID/g of brain.
